Columns and labels:
Type in all cases: cell-based, human
[1] = test system: normal hepatocyte cell line (QSG-7701); assay: MTT cytotoxic assay on normal hepatocytes; settings: Homo sapiens, QSG7701, 48 h, mean value ± SD
Method: Three human hepatocarcinoma cell lines (SMMC-7721, HepG2 and Hep3B) and normal hepatocyte cell line (QSG-7701) were maintained in Dulbecco Modified Eagle Medium (DMEM) containing 4.0 mM L-Glutamine and 4500 mg/l Glucose supplemented with 10% (v/v) foetalbovine serum (FBS) and 100 unites/mL penicillin/streptomycin at 37 °C in humidified atmosphere of 5% CO2 and 95% air.
The in vitro cytotoxic activities of the carbazole derivatives of DHA were evaluated against three human hepatocarcinoma cell lines (SMMC-7721, HepG2 and Hep3B) and a normal human hepatocyte cell line (QSG-7701) via the MTT colorimetric method. Briefly, SMMC-7721, HepG2, Hep3B and QSG-7701 cells were harvested at log phase of growth and seeded in 96-well plates (100 µL/well at a density of 2 × 10^5 cells/mL). After 24 h incubation at 37 °C and 5% CO2 to allow cell attachment, cultures were exposed to various concentrations of the isolated compounds for 48 h. Finally, MTT solution (2.5 mg/mL in PBS) was added (40 µL/well). Plates were further incubated for 4 h at 37 °C, and the formazan crystals formed were dissolved by adding 150 µL/well of DMSO. Absorption at 570 nm was measured with an ELISA plate reader. […] Doxorubicin was co-assayed as positive control.

pERK1/2 = assay: Western blot of ERK and pERK in HepG2 cells; settings: 48 h
Method: HepG2 cells were seeded at a density of 5 × 10^6 cells per well and attached for 8 h, and then treated with different concentrations of compound 10g for 48 h. After the treatment, the cells were harvested and washed twice with PBS. The harvested cells were lysed with radio-immunoprecipitation assay (RIPA) lysis buffer (Beyotime Biotech., Nantong, China) with 1% cocktail (Sigma-Aldrich, USA). Whole-cell protein lysates were prepared and centrifuged at 12,000 rpm for 10 min at 4 °C. The total proteins were determined using Bradford reagent (Bio-Rad Laboratories, Inc., USA). Exactly 40 µg of protein per lane was separated through sodium dodecyl sulfate-polyacrylamide gel electrophoresis and then transferred onto a polyvinylidene difluoride membrane (Millipore, Bedford, MA, USA). The membranes were incubated with each antibody and detected through immunoblot analysis. All of the antibodies were purchased from Cell signaling Technology, Inc. (Boston, MA, USA) and diluted in accordance with the manufacturer’s instruction. Proteins were visualized using a C-Digit® imaging system (LI-COR Biosciences, Lincoln, NE, USA).

HepG2 cells [2] = assay: Cell cycle analysis (PI staining, flow cytometry); settings: HepG2, 2 µM (as printed in text), 48 h
Method: Cell cycle distributions in HepG2 cells were determined through propidium iodide (PI) staining and analysed by flow cytometry. HepG2 cells were seeded into a six-well plate at 5 × 10^5 cell/mL and treated with different concentrations of compound 10g for 48 h. After treatment, cells were detached with 0.25% trypsin, harvested by centrifugation, washed twice with ice-cold PBS and then fixed and permeabilised with ice-cold 70% ethanol at 4 °C overnight. Ethanol was removed and the cells were washed twice with ice-cold PBS. After this, the cells were treated with 100 µL of RNase (100 µg/mL) at 37 °C for 30 min, followed by incubation with 400 µl of DNA staining solution (PI) (1 mg/mL) in the dark at 4 °C for 30 min. The samples were analyzed by a flow cytometer (Becton-Dickinson FACSCalibur, NJ, USA) and data were analysed using the FlowJo software (Becton-Dickinson & Co, Totowa, NJ, USA).

HepG2 cells [3] = assay: Annexin V-FITC/PI dual staining assay; settings: HepG2, 2 µM (as printed in text), 48 h
Method: The extent of apoptosis was quantitatively measured using Annexin V-FITC/PI dual staining assay. HepG2 cells were seeded into a six-well plate at 5 × 10^5 cells per well in 10% foetal calf serum (FBS)-DMEM into six-well plates and treated with different concentrations of the indicated compound 10g for 48 h. The cells were detached with 0.25% trypsin, washed with ice-cold PBS for twice and then resuspended in 1 × Binding buffer (0.1 M Hepes/NaOH (pH 7.4), 1.4 M NaCl, 25 mM CaCl2). The cells were stained with 5 µL of Annexin V-FITC and 5 µL of PI (propidium iodide) to each tube. The cells were gently vortexed and incubated in the dark at room temperature for 15 min and then keep them at 4 °C. The samples were analysed by a flow cytometer (Becton-Dickinson FACSCalibur, NJ, USA) and data were analysed using the FlowJo software (Becton-Dickinson & Co, Totowa, NJ, USA).

HepG2 cells [4] = assay: Mitochondrial membrane potential assay (JC-1)
Method: The JC-1 mitochondrial membrane potential assay kit (Keygene Biotech., China) was employed to measure mitochondrial depolarization in HepG2 cells. Briefly, cells cultured in six-well plates after indicated treatments were incubated with an equal volume of JC-1 staining solution (5 µg/mL) at 37 °C for 20 min and rinsed twice with PBS. Mitochondrial membrane potentials were monitored by determining the relative amounts of dual emissions from mitochondrial JC-1 monomers or aggregates using flow cytometry (Becton-Dickinson FACSCalibur, New York, USA). Mitochondrial depolarization is indicated by an increase in the pencentage of cells with low ΔΨm (green fluorescence, lower right quadrant) compared with cells with high ΔΨm (red fluorescence, upper right quadrant).

HepG2 cells [5] = assay: Lactate dehydrogenase (LDH) leakage assay; settings: HepG2, 5 µM, 24 h
Method: The cell membrane integrity was determined by LDH leakage assay by using a LDH assay kit (Beyotime, China). In brief, HepG2 cells were plated on 96-well plates at the density of 5 × 10^3 cells per well and allowed to attach overnight. After being incubated with compound 10g for 24 h, the supernatants were collected and centrifuged at the speed of 1000 rpm and were subjected to LDH detection as the description in the manual. The absorbance at 490 nm was measured by a Cytation 3 Cell Imaging Multi-Mode Reader (BioTek Instruments, Inc., Winooski, VT, USA).

CCOc1ccc2c(c1)c1c(n2CCN2CCNCC2)-c2cc(C(C)C)ccc2C2(C)CCCC(C)(C(=O)OC)C12 (stereo not drawn) [Compound 10g, 2,3,4,4a,9,13c-Hexahydro-12-ethoxy-7-isopropyl-1,4a-dimethyl-9–(2-(piperazin-1-yl)ethyl)-1H-dibenzo[a,c]carbazole-1-carboxylic acid methyl ester]
IC50 [1]: 12.5 ± 0.58 µM | expression level of pERK1/2, % of the control group (pERK1/2; 0.1 µM): 88.8% | expression level of pERK1/2, % of the control group (pERK1/2; 0.5 µM): 43.8% | expression level of pERK1/2, % of the control group (pERK1/2; 1.0 µM): 34.2% | expression levels of ERK1/2 (in words) (pERK1/2; 0.1-1.0 µM): decreased slightly | G0/G1 phase cells (HepG2 cells [2]): 55.37% | percentage of cells in G2/M phase (HepG2 cells [2]): 20.09% | percentage of early and late apoptotic cells (HepG2 cells [3]): 60.02% | percentage of cells with low ΔΨm (lower right quadrant) (HepG2 cells [4]; HepG2, 0.2 µM): 5.29% | percentage of cells with low ΔΨm (lower right quadrant) (HepG2 cells [4]; HepG2, 0.5 µM): 9.47% | percentage of cells with low ΔΨm (lower right quadrant) (HepG2 cells [4]; HepG2, 1.0 µM): 15.00% | relative LDH leakage level (HepG2 cells [5]): 93.03%
